In brackets after ≈: the same amount, converted by molar mass.
How the values were obtained:
Caco-2 [1] = test: (§1) Apparent permeability from basolateral to apical side of human Caco2 cells; format: ADME, cell-based
[2] = Metabolic stability in rat hepatic microsomes assessed as compound turnover at 5 uM in absence of NADPH after 30 mins; format: ADME; conditions: liver microsomes, read-out: Activity
[3] = Mean residence time in rat at 1 mg/kg, iv; format: ADME, organism-based; set-up: dose 1 mg/kg, route intravenous; conditions: in vivo
Caco-2 [4] = test: (§2) Apparent permeability from apical to basolateral side of the human Caco2 cells; format: ADME, cell-based
[5] = Solubility in aqueous media at pH 7.4; format: physicochemical
[6] = AUC (0 to infinity) in rat at 10 mg/kg, po; format: ADME, organism-based; set-up: time infinity, dose 10 mg/kg, route oral; conditions: plasma
[7] = Metabolic stability in rat hepatic microsomes assessed as compound turnover at 5 uM in presence of NADPH after 30 mins; format: ADME; conditions: liver microsomes, read-out: Activity
[8] = Metabolic stability in human hepatic microsomes assessed as compound turnover at 5 uM in absence of NADPH after 30 mins; format: ADME; conditions: liver microsomes, read-out: Activity
[9] = Metabolic stability in human hepatic microsomes assessed as compound turnover at 5 uM in presence of NADPH after 30 mins; format: ADME; conditions: liver microsomes, read-out: Activity
[10] = molecular target: T1, Mitogen-activated protein kinase 14 (Homo sapiens, UniProt Q16539); test: Inhibition of human p38alpha using biotinylated ATF2 substrate by FRET assay
[11] = Volume of distribution at steady state in rat at 1 mg/kg, iv; format: ADME, organism-based; set-up: dose 1 mg/kg, route intravenous; conditions: in vivo, read-out: Vdss
[12] = Oral bioavailability in rat at 10 mg/kg; format: ADME, organism-based; conditions: in vivo
[13] = Clearance in rat at 1 mg/kg, iv; format: ADME, organism-based; set-up: dose 1 mg/kg, route intravenous; conditions: in vivo
[14] = Cytotoxicity against CHO cells at 200 uM; format: cell-based, Cricetulus griseus; conditions: chinese hamster, read-out: INH
[15] = Cmax in rat at 10 mg/kg, po; format: ADME, organism-based; set-up: dose 10 mg/kg, route oral; conditions: in vivo
[16] = Cmax in rat at 1 mg/kg, iv; format: ADME, organism-based; set-up: dose 1 mg/kg, route intravenous; conditions: in vivo
Rattus norvegicus = species on record: Rattus norvegicus; test: Hepatic blood flow in rat; format: ADME, organism-based, Liver
[17] = Terminal half life in rat at 1 mg/kg, iv; format: ADME, organism-based; set-up: dose 1 mg/kg, route intravenous; conditions: in vivo, read-out: beta t1/2 (converted)
[18] = molecular target: T1, Mitogen-activated protein kinase 14; test: Inhibition of p38alpha in human whole blood assessed as reduction in TNF-alpha production by ELISA
[19] = AUC (0 to infinity) in rat at 1 mg/kg, iv; format: ADME, organism-based; set-up: time infinity, dose 1 mg/kg, route intravenous; conditions: plasma
[20] = molecular target: RAF proto-oncogene serine/threonine-protein kinase (Homo sapiens, UniProt P04049); test: Inhibition of human c-RAF
CHO = test: Cytotoxicity against CHO cells; format: cell-based; conditions: Cricetulus griseus
[21] = as §1; format: ADME, cell-based; conditions: caco-2
[22] = as §2; format: ADME, cell-based; conditions: caco-2

T1 sequence (Q16539 whole entry): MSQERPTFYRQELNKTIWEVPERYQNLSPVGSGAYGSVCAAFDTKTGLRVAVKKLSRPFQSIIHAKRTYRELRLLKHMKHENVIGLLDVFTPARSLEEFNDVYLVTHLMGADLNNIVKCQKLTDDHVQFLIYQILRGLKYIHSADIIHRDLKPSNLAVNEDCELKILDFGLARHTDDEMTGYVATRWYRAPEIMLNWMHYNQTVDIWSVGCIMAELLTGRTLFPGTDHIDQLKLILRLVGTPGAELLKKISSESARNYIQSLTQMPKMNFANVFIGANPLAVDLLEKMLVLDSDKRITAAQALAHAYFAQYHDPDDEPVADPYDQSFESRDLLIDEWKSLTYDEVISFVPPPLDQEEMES
Sequence of RAF proto-oncogene serine/threonine-protein kinase (P04049 whole entry): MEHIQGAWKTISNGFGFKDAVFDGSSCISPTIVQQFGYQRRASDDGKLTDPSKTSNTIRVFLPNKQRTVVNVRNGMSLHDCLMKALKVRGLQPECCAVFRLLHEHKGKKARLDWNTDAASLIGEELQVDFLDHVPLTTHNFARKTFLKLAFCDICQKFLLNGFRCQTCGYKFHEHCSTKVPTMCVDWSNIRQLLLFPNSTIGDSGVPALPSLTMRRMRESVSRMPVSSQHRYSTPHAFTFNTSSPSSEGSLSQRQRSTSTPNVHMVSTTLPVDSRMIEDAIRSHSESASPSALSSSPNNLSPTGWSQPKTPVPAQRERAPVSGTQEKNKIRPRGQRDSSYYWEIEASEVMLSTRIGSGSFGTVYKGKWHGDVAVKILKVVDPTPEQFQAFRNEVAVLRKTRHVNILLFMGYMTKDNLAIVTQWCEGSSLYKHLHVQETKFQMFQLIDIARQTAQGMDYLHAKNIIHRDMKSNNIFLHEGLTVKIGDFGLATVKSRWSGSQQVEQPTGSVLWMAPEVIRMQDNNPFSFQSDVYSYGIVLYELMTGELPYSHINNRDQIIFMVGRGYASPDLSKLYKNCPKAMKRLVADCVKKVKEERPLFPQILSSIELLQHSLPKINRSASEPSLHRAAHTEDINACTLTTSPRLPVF

Row | Structure (SMILES) | Papp (Caco-2 [1]) | metabolised at 0.5 h, 5 µM [2] [%] | Papp (Caco-2 [4]) | metabolised at 0.5 h, 5 µM [7] [%] | metabolised at 0.5 h, 5 µM [8] [%] | metabolised at 0.5 h, 5 µM [9] [%] | IC50 [10] [nM] | IC50 [18] [nM] | other results
1 | Cc1ccc(C(=O)NC2CC2)cc1-c1ccc2c(c1)NC(=O)C21CCCC1 | permeable | < 5 | permeable | 44 |  |  |  |  | MRT [3]: 2.1 h; solubility [5]: 3 µg/mL (≈ 8.32 µM); AUC(0-inf) [6]: 2640 ng·h/mL
2 | Cc1ccc(C(=O)NC2CC2)cc1-c1ccc2c(c1)NC(=O)C21CCCCC1 | permeable | < 5 | permeable | 47 | 29 | 57 |  |  | 
3 | Cc1ccc(C(=O)NC2CC2)cc1-c1ccc2c(c1)NC(=O)C2(CCO)CCO | permeable |  | permeable |  |  |  | 4570 |  | 
4 | Cc1ccc(C(=O)NC2CC2)cc1-c1ccc2c(c1)NC(=O)C21CCN(C)CC1 | permeable |  | permeable | 13 | 17 | 15 |  | 9.6 | Vd [11]: 19.1 L/kg; bioavailability [12]: 35%; clearance [13]: 73.3 mL/min/kg; cytotoxicity at 200 µM [14]: 40%; Cmax [15]: 134 ng/mL; MRT [3]: 4.3 h; Cmax [16]: 133 ng/mL; QH (Rattus norvegicus): > 85%; half-life [17]: 306 min; AUC(0-inf) [19]: 226 ng·h/mL; AUC(0-inf) [6]: 786 ng·h/mL
5 | Cc1ncc(C(=O)NC2CC2)cc1-c1ccc2c(c1)NC(=O)C21CCCC1 | permeable | < 5 | permeable | 30 | 11 | 29 | 7.4 | 150 | cytotoxicity at 200 µM [14]: 68%
6 | Cc1ccc(C(=O)NC2CC2)cc1-c1cnc2c(c1)NC(=O)C21CCC(F)(F)CC1 | permeable | < 5 | permeable | 19 | < 5 | 1 | 2.3 | 188 | IC50 (CHO): 49 µM
7 | Cc1ccc(C(=O)NC2CC2)cc1-c1cnc2c(c1)NC(=O)C2(C)C | permeable | < 5 | permeable | 2 | 7 | 8 |  | 544 | 
8 | Cc1ccc(C(=O)NC2CC2)cc1-c1ncc2c(n1)NC(=O)C21CCCC1 | permeable |  | permeable |  |  |  |  | 1100 | 
9 | Cc1ccc(C(=O)NC2CC2)cc1-c1cnc2c(c1)NC(=O)C21CCCC1.Cl |  |  |  |  |  |  |  |  | Vd [11]: 1.2 L/kg; bioavailability [12]: 65%; clearance [13]: 10 mL/min/kg; Cmax [15]: 4620 ng/mL; MRT [3]: 2.2 h; Cmax [16]: 1240 ng/mL; half-life [17]: 234 min; AUC(0-inf) [19]: 1850 ng·h/mL; AUC(0-inf) [6]: 12000 ng·h/mL

The remaining compounds from weak to strong by IC50 [18], led by results:

Row | Papp (Caco-2 [1]) | metabolised at 0.5 h, 5 µM [2] [%] | Papp (Caco-2 [4]) | metabolised at 0.5 h, 5 µM [7] [%] | metabolised at 0.5 h, 5 µM [8] [%] | metabolised at 0.5 h, 5 µM [9] [%] | IC50 [10] [nM] | IC50 [18] [nM] | Structure (SMILES) | other results
10 | permeable | 11 | permeable | 33 | 16 | 19 |  | 128 | Cc1ccc(C(=O)NC2CC2)cc1-c1ccc2c(n1)NC(=O)C21CCCC1 | IC50 (CHO): 58 µM
11 | permeable | 5 | permeable | 0 | 16 | 8 |  | 86 | Cc1ccc(C(=O)NC2CC2)cc1-c1cnc2c(c1)NC(=O)C21CCOCC1 | cytotoxicity at 200 µM [14]: 36%
12 |  | < 5 |  | 0 | 11 | 5 |  | 75 | Cc1ccc(C(=O)NC2CC2)cc1-c1ccc2c(c1)NC(=O)C21CCS(=O)(=O)CC1 | Papp B→A [21]: 25 ×10⁻⁶ cm/s; Papp A→B [22]: 4 ×10⁻⁶ cm/s
13 | permeable | < 5 | permeable | 16 | 10 | 19 | 1.8 | 69 | Cc1ccc(C(=O)NC2CC2)cc1-c1cnc2c(c1)NC(=O)C21CCCC1 | cytotoxicity at 200 µM [14]: 62%; IC50 [20]: 105 nM
14 | permeable | < 5 | permeable | 21 | < 5 | 10 |  | 64 | Cc1ccc(C(=O)NC2CC2)cc1-c1cc2c(cn1)C1(CCCC1)C(=O)N2 | cytotoxicity at 200 µM [14]: 29%
15 | permeable | < 5 | permeable | 18 | 53 | 36 |  | 20 | Cc1c(F)cc(C(=O)NC2CC2)cc1-c1ccc2c(c1)NC(=O)C21CCN(S(C)(=O)=O)CC1 | 
16 | permeable | < 5 | permeable | 97 | 41 | 72 | 0.08 | 16 | Cc1ccc(C(=O)NC2CC2)cc1-c1ccc2c(c1)NC(=O)C21CCSCC1 | IC50 (CHO): 16 µM
17 | permeable | < 5 | permeable | 16 | 40 | 34 | 1.65 | 14 | Cc1ccc(C(=O)NC2CC2)cc1-c1ccc2c(c1)NC(=O)C21CCOCC1 | Vd [11]: 0.8 L/kg; bioavailability [12]: 40%; clearance [13]: 6.67 mL/min/kg; Cmax [15]: 1310 ng/mL; MRT [3]: 2.2 h; Cmax [16]: 1530 ng/mL; half-life [17]: 162 min; AUC(0-inf) [19]: 2770 ng·h/mL; AUC(0-inf) [6]: 10400 ng·h/mL; IC50 [20]: 120 nM
18 | permeable | 7 | permeable | 15 | 61 | 40 | 1.4 | 11 | Cc1ccc(C(=O)NC2CC2)cc1-c1ccc2c(c1)NC(=O)[C@]21CC[C@H](O)CC1 | 
19 | permeable | < 5 | permeable | < 5 | < 5 | < 5 |  | 10 | Cc1ccc(C(=O)NC2CC2)cc1-c1ccc2c(c1)NC(=O)C21CCC(F)(F)CC1 | Vd [11]: 4.2 L/kg; clearance [13]: 3.33 mL/min/kg; MRT [3]: 21 h; IC50 (CHO): 7 µM; Cmax [16]: 436 ng/mL; half-life [17]: 864 min; AUC(0-inf) [19]: 5020 ng·h/mL
20 | permeable | < 5 | permeable | 23 | 72 | 74 | 0.09 | 7 | Cc1ccc(C(=O)Nc2ccon2)cc1-c1ccc2c(c1)NC(=O)C21CCOCC1 | 
21 | permeable | < 5 | permeable | 2 | 81 | 65 | 1.4 | 5 | Cc1ccc(C(=O)NC2CC2)cc1-c1ccc2c(c1)NC(=O)[C@]21CC[C@@H](O)CC1 | 
22 | permeable | < 5 | permeable | 14 | 17 | 17 | 0.9 | 4.9 | Cc1ccc(C(=O)Nc2ccon2)cc1-c1ccc2c(c1)NC(=O)C21CCC(F)(F)CC1 | 

Reference: ChEMBL document CHEMBL1821672, “Indolin-2-one p38α inhibitors II: Lead optimisation” (Bioorg Med Chem Lett, 2011)
